Measured values: PubChem BioAssay AID2060607 (Molecular Pharmacology Branch, DTP, NCI, 2025)

Test system: 876862-298-R-J1-PDC complex spheroids, viability % test/control
Assay: Anticancer human tumor 876862-298-R-J1-PDC patient-derived endometrial carcinoma cell line growth inhibition [CLK]
Details: for IC50: curve of first compound; for viability, T/C: stronger effect = lower value; active = viability on the fitted dose curve at most 10% of control; inactive = the rest
In short: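 Patient-derived tumor cells grown as complex spheroids with HUVEC endothelial cells and mesenchymal stem cells, treated with drug combinations. Concentrations descend in half-log steps from near clinical Cmax, or from 10 microM if Cmax unknown.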

[1] = second compound 0.0316 µM, first compound 0.0316 µM
[2] = second compound 0.0316 µM, first compound 0.1 µM
[3] = second compound 0.0316 µM, first compound 0.316 µM
[4] = second compound 0.0316 µM, first compound 1 µM
[5] = second compound 0.0316 µM, first compound 3.16 µM
[6] = second compound 0.0316 µM, first compound 10 µM
[7] = second compound 0.1 µM, first compound 0.0316 µM
[8] = second compound 0.1 µM, first compound 0.1 µM
[9] = second compound 0.1 µM, first compound 0.316 µM
[10] = second compound 0.1 µM, first compound 1 µM
[11] = second compound 0.1 µM, first compound 3.16 µM
[12] = second compound 0.1 µM, first compound 10 µM
[13] = second compound 0.316 µM, first compound 0.0316 µM
[14] = second compound 0.316 µM, first compound 0.1 µM
[15] = second compound 0.316 µM, first compound 0.316 µM
[16] = second compound 0.316 µM, first compound 1 µM
[17] = second compound 0.316 µM, first compound 3.16 µM
[18] = second compound 0.316 µM, first compound 10 µM
[19] = second compound 1 µM, first compound 0.0316 µM
[20] = second compound 1 µM, first compound 0.1 µM
[21] = second compound 1 µM, first compound 0.316 µM
[22] = second compound 1 µM, first compound 1 µM
[23] = second compound 1 µM, first compound 3.16 µM
[24] = second compound 1 µM, first compound 10 µM
[25] = second compound 3.16 µM, first compound 0.0316 µM
[26] = second compound 3.16 µM, first compound 0.1 µM
[27] = second compound 3.16 µM, first compound 0.316 µM
[28] = second compound 3.16 µM, first compound 1 µM
[29] = second compound 3.16 µM, first compound 3.16 µM
[30] = second compound 3.16 µM, first compound 10 µM
[31] = second compound 10 µM, first compound 0.0316 µM
[32] = second compound 10 µM, first compound 0.1 µM
[33] = second compound 10 µM, first compound 0.316 µM
[34] = second compound 10 µM, first compound 1 µM
[35] = second compound 10 µM, first compound 3.16 µM
[36] = second compound 10 µM, first compound 10 µM
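Also: spheroids exposed to drugs for 7 days before readout.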
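For viability, T/C in this document: 100% = DMSO vehicle control wells.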

Nc1ccn(C2OC(CO)C(O)C2(F)F)c(=O)n1 (centres undefined) + CNC(=O)c1ccc(Nc2nc(OC3CCCC3)c3c(-c4ccc5nc(C)oc5c4)c[nH]c3n2)c(OC)c1
< 31.6 nM: IC50 (second compound 0.0316 µM) | IC50 (second compound 0.1 µM) | IC50 (second compound 0.316 µM) | IC50 (second compound 1 µM) | IC50 (second compound 3.16 µM) | IC50 (second compound 10 µM)
inactive: viability, T/C [1] 15.1% | viability, T/C [7] 16.5% | viability, T/C [13] 17.7% | viability, T/C [19] 14.6% | viability, T/C [25] 10.5%
active: viability, T/C [2] 7.66% | viability, T/C [3] 9.02% | viability, T/C [4] 6.2% | viability, T/C [5] 7.72% | viability, T/C [6] 9.97% | viability, T/C [8] 9.17% | viability, T/C [9] 9.31% | viability, T/C [10] 7.24% | viability, T/C [11] 7.42% | viability, T/C [12] 10.1% | viability, T/C [14] 7.67% | viability, T/C [15] 7.58% | viability, T/C [16] 5.78% | viability, T/C [17] 7.22% | viability, T/C [18] 6.26% | viability, T/C [20] 8.47% | viability, T/C [21] 6.7% | viability, T/C [22] 6.04% | viability, T/C [23] 6.8% | viability, T/C [24] 5.73% | viability, T/C [26] 5.98% | viability, T/C [27] 5.8% | viability, T/C [28] 6.15% | viability, T/C [29] 4.91% | viability, T/C [30] 5.13% | viability, T/C [31] 8.61% | viability, T/C [32] 5.73% | viability, T/C [33] 5.74% | viability, T/C [34] 5.44% | viability, T/C [35] 6.11% | viability, T/C [36] 3.96%

O=C(c1cc(Cc2n[nH]c(=O)c3ccccc23)ccc1F)N1CCN(C(=O)C2CC2)CC1 + CNC(=O)c1ccc(Nc2nc(OC3CCCC3)c3c(-c4ccc5nc(C)oc5c4)c[nH]c3n2)c(OC)c1
2090 nM: IC50 (second compound 0.1 µM)
< 31.6 nM: IC50 (second compound 0.316 µM) | IC50 (second compound 1 µM) | IC50 (second compound 3.16 µM) | IC50 (second compound 10 µM)
> 10000 nM: IC50 (second compound 0.0316 µM)
inactive: viability, T/C [1] 70.5% | viability, T/C [2] 97% | viability, T/C [3] 84.5% | viability, T/C [4] 94.7% | viability, T/C [5] 96.8% | viability, T/C [6] 72.6% | viability, T/C [7] 47.4% | viability, T/C [8] 55% | viability, T/C [9] 50.6% | viability, T/C [10] 50.6% | viability, T/C [11] 51.5% | viability, T/C [12] 47.3% | viability, T/C [13] 49.1% | viability, T/C [14] 44.6% | viability, T/C [15] 40.6% | viability, T/C [16] 40.6% | viability, T/C [17] 39.4% | viability, T/C [18] 35.9% | viability, T/C [19] 39.1% | viability, T/C [20] 33.7% | viability, T/C [21] 29.6% | viability, T/C [22] 34.1% | viability, T/C [23] 31.3% | viability, T/C [24] 26.1% | viability, T/C [25] 25.5% | viability, T/C [26] 23.7% | viability, T/C [27] 20.4% | viability, T/C [28] 25.3% | viability, T/C [29] 23.3% | viability, T/C [30] 14.3% | viability, T/C [31] 22% | viability, T/C [32] 21.5% | viability, T/C [33] 20.8% | viability, T/C [34] 19.4% | viability, T/C [35] 23.5% | viability, T/C [36] 14.6%
